The values that follow come from article PMC12087695, “A Phenotyping Tool for Seven Cytochrome P450 Enzymes and Two Transporters: Application to Examine the Effects of Clopidogrel and Gemfibrozil” (Clinical Pharmacology and Therapeutics, 2025).

The nature of series [1]: Plasma pharmacokinetics of cocktail index drugs and their metabolites, five-phase crossover trial.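 Further: parameters derived from plasma drug levels quantified by LC–MS with internal standards after acetonitrile protein precipitation.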
Procedure: (§1) This open‐label cross‐over clinical trial included five study phases that each participant underwent in a randomized order (Table 1 ). There was at least 2‐week washout period between different study days.
(§2) On study days, venous blood samples from all participants were drawn from forearm vein cannulas before the administration of the pretreatment drugs and 5 minutes before and 0.5, 1, 1.5, 2, 3, 4, 6, 8, 12, and 23 hours after the administration of the index drugs for determination of index drug and metabolite concentrations. […] Standardized breakfast was served 1 hour, lunch 3 hours, and snacks 7 and 9 hours after the administration of index drugs.
(§3) Prior to the analysis, the analytes were extracted from the plasma samples with simple protein precipitation. Plasma samples (50 μL) were mixed with acetonitrile solution (200 μL) containing internal standards. The samples were centrifugated and an aliquot of the supernatant was mixed with an equal volume of water before LC–MS analyses.
(§4) The flow rate was 0.3 mL/min, and the gradient program for the mobile phase B was from 20% to 90% over 7 minutes, wash at 90% 7–9.5 minutes, followed by balancing at 20% before next injection. […] The column and mobile phases were the same as above, and the gradient program for the mobile phase B was from 40% to 90% over 5 minutes, wash at 90% 5–7.3 minutes, followed by balancing at 40% before next injection. The quality control samples for each analyte at relevant concentrations were quantified with each batch of plasma samples.
(§5) Individuals with poor metabolism or transport function phenotype were excluded from respective statistical comparisons.
A short description of another series: clinical. Particulars: human; for AUC(0-inf): AUC0-∞; for half-life: t1/2, geometric mean (geometric CV); for Tmax: median (range).
Series [2] can be described thus: Safety: adverse effects and blood glucose monitoring. In kind it is in vivo, human.
Procedure: On study days, venous blood samples from all participants were drawn from forearm vein cannulas before the administration of the pretreatment drugs and 5 minutes before and 0.5, 1, 1.5, 2, 3, 4, 6, 8, 12, and 23 hours after the administration of the index drugs for determination of index drug and metabolite concentrations. Additional venous blood samples for biomarker analyses were drawn before the administration of the pretreatment drugs and 5 minutes before and 3 hours after the administration of the index drugs. Standardized breakfast was served 1 hour, lunch 3 hours, and snacks 7 and 9 hours after the administration of index drugs. Blood glucose levels were monitored with CareSens Dual point‐of‐care blood glucose meter (i‐SENS Inc., Seoul, South Korea) at each venous blood sampling time point up to 12 hours after the administration of index drugs.
A further series addresses T1, OATP1B3 (Homo sapiens, UniProt Q9NPD5).
T1 sequence (Q9NPD5 1-702): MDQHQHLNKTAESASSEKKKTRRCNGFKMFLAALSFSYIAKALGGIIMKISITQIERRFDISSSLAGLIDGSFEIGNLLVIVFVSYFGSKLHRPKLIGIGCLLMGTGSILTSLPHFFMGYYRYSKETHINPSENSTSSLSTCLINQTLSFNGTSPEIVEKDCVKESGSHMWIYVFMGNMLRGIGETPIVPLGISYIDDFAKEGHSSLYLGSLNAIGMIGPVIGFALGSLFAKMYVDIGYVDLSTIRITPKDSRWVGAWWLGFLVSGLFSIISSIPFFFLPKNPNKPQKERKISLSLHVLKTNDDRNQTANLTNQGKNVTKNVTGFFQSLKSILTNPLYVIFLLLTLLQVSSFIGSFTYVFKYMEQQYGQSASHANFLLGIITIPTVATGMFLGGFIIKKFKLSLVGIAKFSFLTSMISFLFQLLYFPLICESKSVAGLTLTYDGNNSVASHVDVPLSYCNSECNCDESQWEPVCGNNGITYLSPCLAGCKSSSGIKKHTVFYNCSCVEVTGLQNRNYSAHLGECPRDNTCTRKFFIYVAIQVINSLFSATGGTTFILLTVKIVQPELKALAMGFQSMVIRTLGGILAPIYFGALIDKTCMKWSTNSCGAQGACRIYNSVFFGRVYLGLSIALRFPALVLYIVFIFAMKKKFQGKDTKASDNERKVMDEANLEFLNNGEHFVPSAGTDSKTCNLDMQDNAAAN
The series is described as follows: OATP1B3 endogenous biomarker GCDCA-3S in plasma.

For a further series, the system named is OATP1B1. The series is described as follows: OATP1B1 endogenous biomarker GCDCA-3G in plasma.
[3] abbreviates: phase IV: clopidogrel 300 mg pretreatment + full cocktail.
Where [4] appears, read: phase V: gemfibrozil 600 mg b.i.d. 3 days pretreatment + full cocktail.
[5] abbreviates: in vivo, AUC0-23h, geometric mean (geometric CV), phase II: Geneva cocktail.
[6] abbreviates: in vivo, AUC0-23h, geometric mean (geometric CV), phase IV: clopidogrel 300 mg pretreatment + full cocktail.
Where [7] appears, read: in vivo, geometric mean (geometric CV), phase II: Geneva cocktail.
[8] abbreviates: in vivo, geometric mean (geometric CV), phase IV: clopidogrel 300 mg pretreatment + full cocktail.
[9] abbreviates: in vivo, geometric mean (geometric CV), phase V: gemfibrozil 600 mg b.i.d. 3 days pretreatment + full cocktail.
[10] abbreviates: in vivo, phase II: Geneva cocktail.
The mark [11] stands for this setting: in vivo, 0.05 mg, geometric mean (geometric CV), phase I: repaglinide 0.05 mg alone.
[12] abbreviates: in vivo, AUC0-23h, geometric mean (geometric CV), phase V: gemfibrozil 600 mg b.i.d. 3 days pretreatment + full cocktail.
Where [13] appears, read: in vivo, phase IV: clopidogrel 300 mg pretreatment + full cocktail.
The mark [14] stands for this setting: in vivo, phase V: gemfibrozil 600 mg b.i.d. 3 days pretreatment + full cocktail.
[15] abbreviates: N = 16, clopidogrel pretreatment.
Setting [16] is: N = 16, gemfibrozil pretreatment.
[17] abbreviates: N = 16, phase III full cocktail (control).
Where [18] appears, read: OATP1B1 normal/decreased function (N = 13), clopidogrel pretreatment.
Setting [19] is: OATP1B1 normal/decreased function (N = 13), gemfibrozil pretreatment.
Setting [20] is: OATP1B1 normal/decreased function (N = 13), phase III full cocktail (control).
Setting [21] is: OATP1B1 poor function (N = 3), clopidogrel pretreatment.
Where [22] appears, read: OATP1B1 poor function (N = 3), gemfibrozil pretreatment.
Setting [23] is: OATP1B1 poor function (N = 3), phase III full cocktail (control).

Procedure for OATP1B1: (§6) On study days, venous blood samples from all participants were drawn from forearm vein cannulas before the administration of the pretreatment drugs and 5 minutes before and 0.5, 1, 1.5, 2, 3, 4, 6, 8, 12, and 23 hours after the administration of the index drugs for determination of index drug and metabolite concentrations. Additional venous blood samples for biomarker analyses were drawn before the administration of the pretreatment drugs and 5 minutes before and 3 hours after the administration of the index drugs.
(§7) Plasma repaglinide, OATP1B1 biomarker GCDCA‐3G, OATP1B3 biomarker GCDCA‐3S, and CYP2D6 biomarker solanidine were analyzed using Sciex 5500 Qtrap and Sciex 6500 Qtrap LC–MS systems (AB Sciex, Toronto, ON, Canada) as previously described.[20], [21], [22] The limit of quantification for repaglinide was 0.01 ng/mL. The between‐day precisions (CV%) for quality controls (0.1 and 2.0 ng/mL) were below 10% and accuracies were within ±10%. For GCDCA‐3G and GCDCA‐3S, the limit of quantification was 0.5 ng/mL and the between‐day precisions and accuracies were below 5% and ± 10% at relevant concentrations (10 and 200 ng/mL).
(§8) As for biomarkers, AUC0‐3h values in phases I–III and AUC0‐4h values in phases III–V for GCDCA‐3G and GCDCA‐3S and AUC0‐4h values in phases III and V for M430, M444, and solanidine were calculated with trapezoidal rule in Excel (Microsoft, Redmond, WA).
(§9) Individuals with poor metabolism or transport function phenotype were excluded from respective statistical comparisons. Additionally, to keep comparisons balanced, subjects lacking pharmacokinetic variable data in any study phase were excluded from the respective analyses. Prior to statistical analyses with IBM SPSS Statistics Version 29.0 for Windows (IBM Corporation, Armonk, NY), all pharmacokinetic variable values were logarithmically transformed. Pharmacokinetic variables except T max were compared between different study phases by repeated‐measures analysis of variance with study phase as a within‐subjects factor. T max values were compared with Wilcoxon signed‐rank test. Differences with P < 0.05 after the Bonferroni correction were considered statistically significant. The data are presented as geometrical mean values or geometric mean ratios with geometric CV or 90% confidence intervals (CI) if not otherwise indicated.
Procedure for OATP1B3: as §6, §7, §8, §9
Procedure for clinical: as §1, §2, §3, §4, §5

The AUC(0-t) is the area under the concentration-time curve up to a stated or last time point. Broadly, the AUC(0-inf) is the area under the concentration-time curve extrapolated to infinity. As a reminder, the Cmax is the peak of the concentration-time curve. What is called half-life is the time needed for the level to fall by half in the phase considered. In the case of `COc1ccc2[nH]c([S+]([O-])Cc3ncc(C)c(OC)c3C)nc2c1` (stereo not shown) [Omeprazole, omeprazole], in series [1] (phase II: Geneva cocktail), the “Cmax, geometric mean (geometric CV)” value was 144 (88.5%) ng/mL. Moreover, the results for the “t1/2, geometric mean (geometric CV)” value in series [1] (setting [3]) and in series [1] (setting [4]) were 0.69 (30.9%) h and 0.78 (59.9%) h, respectively. Also, in series [1] (setting [4]), the “AUC0-23h, geometric mean (geometric CV)” value is reported as 150 (62.8%) ng×h/mL. The AUC(0-t) in “clinical” (setting [5]) came out at 177 ng·h/mL; in the series “clinical” (setting [6]), 214 ng·h/mL. Besides, the AUC(0-inf) in the series “clinical” (setting [7]) is 177 ng·h/mL; in “clinical” (setting [8]), 214 ng·h/mL; in the series “clinical” (setting [9]), 149 ng·h/mL. In addition, the Cmax worked out at 167 ng/mL in the series “clinical” (setting [8]) and 98 ng/mL in “clinical” (setting [9]). Besides, in “clinical” (setting [10]), the half-life was 0.76 h.
What is called Tmax is the time from dosing to the highest level. On to `CCOc1cc(CC(=O)N[C@@H](CC(C)C)c2ccccc2N2CCCCC2)ccc1C(=O)O` [Repaglinide, repaglinide], for which the Hypoglycemia result in series [2] (0.05 mg repaglinide, breakfast an hour later, also after gemfibrozil pretreatment) is “no hypoglycemia was observed”. Besides, the “Safety / adverse effects” value in series [2] (all study phases, 16 healthy volunteers) was “safe”. The “Tmax, median (range)” value in series [1] (phase I: repaglinide 0.05 mg alone) is on record as 0.5 (0.5-1.0) h. The AUC(0-t) was determined as 0.936 ng·h/mL in the series “clinical” (in vivo, 0.05 mg, AUC0-4h, geometric mean (geometric CV), phase I: repaglinide 0.05 mg alone); 1.01 ng·h/mL in the series “clinical” (in vivo, 0.05 mg, AUC0-23h, geometric mean (geometric CV), phase I: repaglinide 0.05 mg alone); 3.7 ng·h/mL in the series “clinical” (in vivo, AUC0-4h, geometric mean (geometric CV), phase IV: clopidogrel 300 mg pretreatment + full cocktail); 4.93 ng·h/mL in the series “clinical” (in vivo, AUC0-4h, geometric mean (geometric CV), phase V: gemfibrozil 600 mg b.i.d. 3 days pretreatment + full cocktail); 5.55 ng·h/mL in “clinical” (setting [6]); 9.21 ng·h/mL in the series “clinical” (setting [12]). The AUC(0-inf) is 1.01 ng·h/mL in “clinical” (setting [11]), 5.65 ng·h/mL in the series “clinical” (setting [8]) and 9.64 ng·h/mL in “clinical” (setting [9]). In addition, the peak concentration (Cmax) in “clinical” (setting [11]) was found to be 0.701 ng/mL; in the series “clinical” (setting [8]) it was 1.69 ng/mL; in the series “clinical” (setting [9]), 2.08 ng/mL. In addition, the half-life is 1.07 h in “clinical” (in vivo, 0.05 mg, phase I: repaglinide 0.05 mg alone); 2.78 h in “clinical” (setting [13]); 3.35 h in the series “clinical” (setting [14]). Also, in the series “clinical” (setting [13]), the Tmax came out at 1 h.
Consider `COc1ccc2c(c1)[C@]13CCCC[C@@H]1[C@H](C2)N(C)CC3` [Dextromethorphan, dextromethorphan], for which the “Tmax, median (range)” value in series [1] (phase II: Geneva cocktail) is recorded as 2.0 (2.0-4.0) h; in series [1] (setting [3]), 2.0 (2.0-3.0) h. The AUC(0-t) in “clinical” (setting [5]) is 4.9 ng·h/mL; in “clinical” (setting [6]), 6.01 ng·h/mL; in “clinical” (setting [12]), 6.07 ng·h/mL. The total exposure AUC(0-inf) in the series “clinical” (setting [7]) worked out at 5.58 ng·h/mL; in “clinical” (setting [8]), 6.68 ng·h/mL; in “clinical” (setting [9]), 6.82 ng·h/mL. Further, the Cmax in the series “clinical” (setting [7]) worked out at 0.745 ng/mL; in “clinical” (setting [8]), 0.858 ng/mL; in the series “clinical” (setting [9]), 0.898 ng/mL. Moreover, the time to peak (Tmax) in the series “clinical” (setting [14]) was determined as 2.5 h. The half-life in “clinical” (setting [10]) is 4.24 h; in the series “clinical” (setting [13]) it was 4.61 h; in the series “clinical” (setting [14]), 4.38 h.
Take `C[C@H](CCC(=O)NCC(=O)O)C1CCC2C3C(CC[C@@]21C)[C@@]1(C)CC[C@@H](OS(=O)(=O)O)C[C@H]1C[C@H]3O` (stereo partly shown) [GCDCA‐3S, glycochenodeoxycholate 3‐sulfate]: the “GCDCA-3S AUC0-4h, geometric mean (geometric CV)” value on OATP1B3 (setting [15]) is 146 (61.8%) ng × h/mL; at OATP1B3 (setting [16]), 212 (46.9%) ng × h/mL; at OATP1B3 (setting [17]) it was 190 (67.4%) ng × h/mL. Further, the “GCDCA-3S C0, geometric mean (geometric CV)” value at OATP1B3 (setting [15]) is given as 49.2 (69.3%) ng/mL; on OATP1B3 (setting [16]), 65.5 (72.9%) ng/mL; at OATP1B3 (setting [17]) it was 50.8 (85.3%) ng/mL. Moreover, the “GCDCA-3S AUC0-3h, geometric mean (geometric CV)” value on OATP1B3 (setting [17]) is 141 (68.3%) ng×h/mL; at OATP1B3 (N=16, phase I repaglinide only) it was 119 (69.0%) ng×h/mL; at OATP1B3 (N=16, phase II Geneva cocktail only), 106 (65.4%) ng×h/mL.
`Cn1c(=O)c2c(ncn2C)n(C)c1=O` [Caffeine, caffeine]: the “Prolongation of t1/2” value in series [1] (gemfibrozil pretreatment vs control) was determined as 21%. Further, the AUC(0-t) in series [1] (human, plasma, oral, AUC0-12h, geometric mean (geometric CV), phase II: Geneva cocktail) was 6250 ng·h/mL; in the series “clinical” (plasma, oral), 6270 ng·h/mL. In addition, in series [1] (human, plasma, oral, AUC0-∞, geometric mean (geometric CV), phase II: Geneva cocktail), the total exposure AUC(0-inf) was determined as 7830 ng·h/mL. The Cmax in series [1] (human, plasma, oral, Cmax, geometric mean (geometric CV), phase II: Geneva cocktail) came out at 1130 ng/mL. Further, the half-life in series [1] (human, plasma, oral, t1/2, geometric mean (geometric CV), phase II: Geneva cocktail) was 4.65 h.
As to `C[C@H](CCC(=O)NCC(=O)O)[C@H]1CC[C@H]2[C@@H]3[C@H](O)C[C@@H]4C[C@H](O[C@@H]5O[C@H](C(=O)O)[C@@H](O)[C@H](O)[C@H]5O)CC[C@]4(C)[C@H]3CC[C@]12C` [GCDCA‐3G, glycochenodeoxycholate 3‐O‐glucuronide], the “GCDCA-3G AUC0-4h, geometric mean (geometric CV)” value is 77.5 (69.9%) ng × h/mL in the series with OATP1B1 (setting [18]); 118 (65.4%) ng × h/mL in the series with OATP1B1 (setting [19]); 88.6 (51.3%) ng × h/mL in the series with OATP1B1 (setting [20]); 791 (56.1%) ng × h/mL in the series with OATP1B1 (setting [21]); 809 (75.4%) ng × h/mL in the series on OATP1B1 (setting [22]); 755 (48.4%) ng × h/mL in the series with OATP1B1 (setting [23]). Besides, the “GCDCA-3G C0, geometric mean (geometric CV)” value with OATP1B1 (setting [18]) is recorded as 21.7 (81.7%) ng/mL; with OATP1B1 (setting [19]), 35.7 (82.5%) ng/mL; in the series with OATP1B1 (setting [20]) it was 22.9 (60.0%) ng/mL; in the series on OATP1B1 (setting [21]), 238 (57.2%) ng/mL; in the series with OATP1B1 (setting [22]), 215 (79.1%) ng/mL; in the series with OATP1B1 (setting [23]), 206 (73.8%) ng/mL. The “GCDCA-3G AUC0-3h, geometric mean (geometric CV)” value was 66.3 (49.6%) ng×h/mL with OATP1B1 (setting [20]); 68.3 (61.0%) ng×h/mL in the series with OATP1B1 (OATP1B1 normal/decreased function (N=13), phase I repaglinide only); 63.6 (75.2%) ng×h/mL in the series on OATP1B1 (OATP1B1 normal/decreased function (N=13), phase II Geneva cocktail only).
